According to patent US10370333B2 (Sanford Burnham Prebys Medical Discovery Institute, priority 2012, dated 2019):

Each compound was assayed against TNAP (Homo sapiens (Human), UniProt P05186) (assay: TNAP (PPi) inhibition assay, pyrophosphate as substrate).
Assay type: biochemical
Method: Expression plasmids containing a secreted epitope-tagged TNAP were transfected into COS-1 cells for transient expression. The medium was replaced with Opti-MEM 24 h later and serum-free media containing secreted proteins was collected 60 hours after electroporation. The medium was dialyzed against TBS containing 1 mM MgCl2 and […] (to remove phosphate) and filtered through a […] cellulose acetate filter.
To determine the inhibition selectivity for inhibitor candidates, human TNAP, PLAP or IAP were added to microtiter plates followed by addition of the substrate pNPP (0.5 mM) and activity was measured in 1 M DEA-HCl buffer, pH 9.8 or in 1 M Tris-HCl buffer, pH 7.5, containing 1 mM MgCl2 and 20 μM ZnCl2, in the presence of potential inhibitors (0-30 μM). TNAP, PLAP and IAP activities were adjusted to an approximate λA405 nm, equivalent to 1, measured after 30 min. Residual AP activity in the presence of inhibitors was expressed as percentage of the control activity. To investigate the mechanism of inhibition, double reciprocal plots of enzyme activity (expressed as mA405 nm min−1) vs. substrate concentration were constructed, in the presence of various concentrations of added inhibitors (0-30 μM). The y-axis intercepts of the 1/v vs. 1/[S] plots, were then plotted vs. [I] to graphically extract Ki values as the x-intercept in this plot. […] Inhibitors were further tested and sorted based on their kinetic properties at pH 7.4 using PPi, the relevant natural substrate of TNAP. […] Amounts of released phosphate were measured using the Biomol Green Reagent (Biomol Research Laboratories, Inc., Plymouth Meeting, Pa.).
For `COc1ccc(Br)cc1S(=O)(=O)Nc1cc(C(F)(F)F)n(C)n1` [Example V-13, 5-Bromo-2-methoxy-N-(1-methyl-5-trifluoromethyl-1H-pyrazol-3-yl)-benzenesulfonamide], the IC50 was > 1000 nM. With `COc1ccc(OC)c(S(=O)(=O)Nc2ccnn2C)c1` [Example V-12, 2,5-Dimethoxy-N-(2-methyl-2H-pyrazol-3-yl)-benzenesulfonamide] the IC50 was > 1000 nM. `CCCNC(=O)c1ccc(OC)c(S(=O)(=O)Nc2cnc3ccccc3c2)c1` [Example II-17, 4-Methoxy-N-propyl-3-(quinolin-3-ylsulfamoyl)-benzamide] was tested, and the IC50 was 100 to 1000 nM. For `COc1ccc(Br)cc1S(=O)(=O)Nc1cnc2ccc(C(=O)O)cc2c1` [Example IX-5, 3-(5-Bromo-2-methoxy-benzenesulfonylamino)-quinoline-6-carboxylic Acid], the IC50 was 100 to 1000 nM. With `C=CCN(c1cnc2ccccc2c1)S(=O)(=O)c1cc(OC)ccc1OC` [Example VII-20, N-Allyl-2,5-dimethoxy-N-(quinolin-3-yl)benzenesulfonamide] the IC50 was > 1000 nM. `COc1ccc(OC(F)(F)F)cc1S(=O)(=O)Nc1cncc(-c2cnn(C)c2)c1` [Example XI-32, 2-Methoxy-N-(5-(1-methyl-1H-pyrazol-4-yl)pyridin-3-yl)-5-(trifluoromethoxy)benzenesulfonamide] was tested, and the IC50 was < 100 nM. With `COc1ccc(OC(F)(F)F)cc1S(=O)(=O)Nc1cncc(-c2cscn2)c1` [Example XI-30, 2-Methoxy-N-(5-(thiazol-4-yl)pyridin-3-yl)-5-(trifluoromethoxy)benzenesulfonamide] the IC50 was < 100 nM. Work on `COc1ccc(C(=O)N2CCOCC2)cc1S(=O)(=O)Nc1cnc2ccccc2c1` [Example II-23, 2-Methoxy-5-(morpholine-4-carbonyl)-N-quinolin-3-yl-benzenesulfonamide] yielded an IC50 of 100 to 1000 nM. Work on `COc1ccc(OC(F)(F)F)cc1S(=O)(=O)Nc1cncc(C(=O)NC2CCCCC2)c1` [Example XII-22, 5-(2-Methoxy-5-(trifluoromethoxy)phenylsulfonamido)-N-cyclohexylnicotinamide] yielded an IC50 of 100 to 1000 nM. For `CNC(=O)c1cncc(NS(=O)(=O)c2cc(Br)ccc2OC(F)(F)F)c1` [Example XII-14, 5-(5-Bromo-2-(trifluoromethoxy)phenylsulfonamido)-N-methylnicotinamide], the IC50 was 100 to 1000 nM. Compound `COc1ccc(Cl)cc1S(=O)(=O)Nc1cncc(-c2ccccc2C(F)(F)F)c1` has an IC50 of 100 to 1000 nM. `COc1ccc(OC)c(S(=O)(=O)Nc2ncco2)c1` [Example V-4, 2,5-Dimethoxy-N-oxazol-2-yl-benzenesulfonamide] was tested, and the IC50 was > 1000 nM. With `COc1ccc(OC)c(S(=O)(=O)Nc2ccc(N3CCOCC3)nc2)c1` [Example VIII-2, 2,5-Dimethoxy-N-(6-morpholinopyridin-3-yl)benzenesulfonamide] the IC50 was > 1000 nM. With `COc1ccc(OC)c(S(=O)(=O)Nc2cncc(-c3nccs3)c2)c1` [Example III-79, 2,5-Dimethoxy-N-(5-(thiazol-2-yl)pyridin-3-yl)benzenesulfonamide] the IC50 was < 100 nM. In the case of `Cn1cc(-c2cncc(NS(=O)(=O)c3cc(Br)ccc3OC(F)(F)F)c2)cn1` [Example XI-31, 5-Bromo-N-(5-(1-methyl-1H-pyrazol-4-yl)pyridin-3-yl)-2-(trifluoromethoxy)benzenesulfonamide], the IC50 is reported as < 100 nM. For `COc1ccc(OC)c(S(=O)(=O)Nc2ccc(N3CCN(C)CC3)nc2)c1` [Example VIII-20, 2,5-Dimethoxy-N-[6-(4-methyl-piperazin-1-yl)-pyridin-3-yl]-benzenesulfonamide], the IC50 was > 1000 nM. `COc1ccc(-c2ccsc2)cc1S(=O)(=O)Nc1cccnc1` [Example I-8, 2-Methoxy-N-pyridin-3-yl-5-thiophen-3-yl-benzenesulfonamide] gave an IC50 of 100 to 1000 nM. In the case of `COc1ccc(OC(F)(F)F)cc1S(=O)(=O)Nc1cncc(-c2cccs2)c1` [Example XI-16, 2-Methoxy-N-(5-(thiophen-2-yl)pyridin-3-yl)-5-(trifluoromethoxy)benzenesulfonamide], the IC50 is reported as < 100 nM. `COc1ccc(Cl)cc1S(=O)(=O)Nc1cncc(-c2cccs2)c1` [Example III-75, 5-Chloro-2-methoxy-N-(5-(thiophen-2-yl)pyridin-3-yl)benzenesulfonamide] was tested, and the IC50 was < 100 nM. In the case of `COc1ccc(Br)cc1S(=O)(=O)Nc1cncc(-c2cccnc2)c1` [Example III-62, N-([3,3′-Bipyridin]-5-yl)-5-bromo-2-methoxybenzenesulfonamide], the IC50 is reported as < 100 nM. For `COc1ccc(Br)cc1S(=O)(=O)Nc1cncc(-c2ccc(C#N)cc2)c1` [Example III-32, 5-Bromo-N-(5-(4-cyanophenyl)pyridin-3-yl)-2-methoxybenzenesulfonamide], the IC50 was < 100 nM. For `CNc1ccc(NS(=O)(=O)c2cc(OC)ccc2OC)cn1` [Example VIII-6, 2,5-Dimethoxy-N-(6-methylamino-pyridin-3-yl)-benzenesulfonamide], the IC50 was > 1000 nM. `CCCN(c1cnc2ccccc2c1)S(=O)(=O)c1cc(Br)ccc1OC` [Example VII-3, 5-Bromo-2-methoxy-N-propyl-N-(quinolin-3-yl)benzenesulfonamide] was tested, and the IC50 was > 1000 nM. `CNC(=O)c1ccc(OC)c(S(=O)(=O)Nc2cnc3ccccc3c2)c1` [Example II-15, 4-Methoxy-N-methyl-3-(quinolin-3-ylsulfamoyl)-benzamide] was tested, and the IC50 was < 100 nM. With `COc1ccc(Br)cc1S(=O)(=O)N(c1cnc2ccccc2c1)C(C)C` [Example VII-4, 5-Bromo-N-isopropyl-2-methoxy-N-(quinolin-3-yl)benzenesulfonamide] the IC50 was > 1000 nM. `COc1ccc(OC)c(S(=O)(=O)Nc2cnc3ccc(C(=O)NC4CCCCC4)cc3c2)c1` [Example IX-14, 3-(2,5-Dimethoxy-benzenesulfonylamino)-quinoline-6-carboxylic Acid Cyclohexylamide] was tested, and the IC50 was < 100 nM. `COc1ccc(OC)c(S(=O)(=O)Nc2cncc(C(N)=O)c2)c1` [Example IV-36, 5-(2,5-Dimethoxyphenylsulfonamido)nicotinamide] showed an IC50 of 100 to 1000 nM. `COc1ccc(OC)c(S(=O)(=O)Nc2cncc(C(=O)Nc3ccccc3)c2)c1` [Example IV-40, 5-(2,5-Dimethoxyphenylsulfonamido)-N-phenylnicotinamide] showed an IC50 of 100 to 1000 nM. `COc1ccc(Br)cc1S(=O)(=O)Nc1cccnn1` [Example V-24, 5-Bromo-2-methoxy-N-pyridazin-3-yl-benzenesulfonamide] gave an IC50 of 100 to 1000 nM. For `COc1ccc(Br)cc1S(=O)(=O)N(Cc1ccccc1)c1cnc2ccccc2c1` [Example VII-6, 5-Bromo-N-benzyl-2-methoxy-N-(quinolin-3-yl)benzenesulfonamide], the IC50 was > 1000 nM. `NC(=O)c1cncc(NS(=O)(=O)c2cc(Br)ccc2OC(F)(F)F)c1` [Example XII-13, 5-(5-Bromo-2-(trifluoromethoxy)phenylsulfonamido)nicotinamide] was tested, and the IC50 was < 100 nM. For `COc1ccc(Br)cc1S(=O)(=O)Nc1cncc(-c2cccc(Cl)c2)c1` [Example III-53, 5-Bromo-N-[5-(3-chloro-phenyl)-pyridin-3-yl]-2-methoxy-benzenesulfonamide], the IC50 was 100 to 1000 nM. With `COc1ccc(Br)cc1S(=O)(=O)Nc1cncc(-c2ccccc2C(F)(F)F)c1` [Example III-44, 5-Bromo-2-methoxy-N-[5-(2-trifluoromethyl-phenyl)-pyridin-3-yl]-benzenesulfonamide] the IC50 was 100 to 1000 nM. Work on `CCCNC(=O)c1cncc(NS(=O)(=O)c2cc(OC)ccc2OC)c1` [Example IV-38, 5-(2,5-Dimethoxyphenylsulfonamido)-N-propylnicotinamide] yielded an IC50 of 100 to 1000 nM. With `COc1ccc(Br)cc1S(=O)(=O)Nc1cncc(C(=O)N2CCN(C)CC2)c1` [Example IV-25, 5-Bromo-2-methoxy-N-(5-(4-methylpiperazine-1-carbonyl)pyridin-3-yl)benzenesulfonamide] the IC50 was 100 to 1000 nM. `COc1ccc(Br)cc1S(=O)(=O)Nc1cncc(-c2ccc(Br)cc2)c1` [Example III-23, 5-Bromo-N-[5-(4-bromo-phenyl)-pyridin-3-yl]-2-methoxy-benzenesulfonamide] gave an IC50 of 100 to 1000 nM. `COc1ccc(C(=O)N2CCN(C)CC2)cc1S(=O)(=O)Nc1cnc2ccccc2c1` [Example II-22, 2-Methoxy-5-(4-methyl-piperazine-1-carbonyl)-N-quinolin-3-yl-benzenesulfonamide] was tested, and the IC50 was > 1000 nM. For `COc1ccc(OC)c(S(=O)(=O)Nc2cncc(-c3ccc(Br)cc3)c2)c1` [Example III-22, N-[5-(4-Bromo-phenyl)-pyridin-3-yl]-2,5-dimethoxy-benzenesulfonamide], the IC50 was 100 to 1000 nM. `CCCOC(=O)c1cncc(NS(=O)(=O)c2cc(OC(F)(F)F)ccc2OC)c1` [Example XII-16, Propyl 5-(2-methoxy-5-(trifluoromethoxy)phenylsulfonamido)nicotinate] was tested, and the IC50 was < 100 nM. Work on `N#Cc1ccc(-c2cncc(NS(=O)(=O)c3cc(Br)ccc3OC(F)(F)F)c2)cc1` [Example XI-11, 5-Bromo-N-(5-(4-cyanophenyl)pyridin-3-yl)-2-(trifluoromethoxy)benzenesulfonamide] yielded an IC50 of 100 to 1000 nM. Compound `CCCNC(=O)c1cncc(NS(=O)(=O)c2cc(Br)ccc2OC)c1` [Example IV-19, 5-(5-Bromo-2-methoxyphenylsulfonamido)-N-propylnicotinamide] has an IC50 of 100 to 1000 nM.
